In US20100234381A1, “BIOMARKERS AND METHODS FOR DETERMINING SENSITIVITY TO VASCULAR ENDOTHELIAL GROWTH FACTOR RECEPTOR-2 MODULATORS” (Bristol-Myers Squibb Company, priority 2007, published 2010):
“Also recorded” adds a separate entry of the source.

Legend:
[1] = system: VEGF-stimulated cancer cell lines; assay: VEGF-stimulated tumor cell proliferation, panel of cancer cell lines; format: cell-based; conditions: in vitro
pERK and pAKT = assay: Western blot of downstream pERK and pAKT after FGF2 stimulation; format: cell-based; conditions: 2 μm brivanib, 40 ng/ml FGF2, HCC cell line
Method: Anti-FGFR1, Anti-VEGFR2, Anti-ERK, Anti-AKT, and Anti-alpha tubulin antibodies were also utilized. Blots were incubated with indicated primary antibodies and 1:7500 horseradish peroxidase-conjugated secondary antibodies. All primary antibodies were used at a final concentration of 1 μg/ml. The blots were then visualized with a chemiluminescent detection system.

FGF pathway = assay: Gene set enrichment analysis of FGF pathway expression after FGF2 stimulation; format: cell-based; conditions: 1 μm drug after FGF2 stimulation
Method: The expression profiles of individual genes within each pathway were analyzed, and the log of the change in expression profile for each condition was measured. Overall, 67 pathways were analyzed. Each gene analyzed for each pathway have not been provided. But, 46 genes from the FGF pathway, 62 genes from the VEGF pathway were analyzed, and a larger generic number of genes consisting of 92 genes for the FGF pathway were analyzed using the AMBION® gene set.

[2] = system: FGF2 growth factor gene expression; assay: FGF2 gene expression, AFFYMETRIX human arrays
VEGF gene expression = assay: VEGF gene expression, AFFYMETRIX human arrays
GEO colon cancer model = assay: Tumor growth inhibition in GEO colon cancer model; format: in vivo; conditions: compared to bevacizumab
[3] = system: advanced or metastatic solid tumors; assay: Phase 1 clinical study CA 182-002: tumor response and PFS by FGF2 status; format: in vivo, human; conditions: for patients with progressive disease / patients with a partial response or stable disease: after 56 days of treatment; for patients with a partial response or stable disease: WHO criteria; for median increase in tumor size from baseline: after two cycles of treatment (approximately 56 days)
From the text: All patients gave informed consent for the clinical trial and for this study, which was approved by the appropriate institutional review boards. Inclusion criteria include ECOG 0-1 (S. Javerzat et al., Trends Mol. Med., 8:483 (2002)), adequate bone marrow and hepatic function, and having tumor tissue block or 20 to 30 unstained slides of the initial biopsy available. Exclusion criteria included prior exposure to vascular endothelial growth factor (VEGF) inhibitors, presence of cardiovascular disease, thromboembolism, or bleeding in the last 6 months. All patients enrolled in the clinical trial had previously failed primary and secondary chemotherapy courses. […] Patients' response was measured by quantifying tumor size by contrast enhanced tomography (CT).
Tumor response was assesses using the modified WHO tumor response criteria. Lesions were evaluated by computed tomography (CT). Lesions were bidimensional and had at least one diameter of >2 cm on standard CT and >1 cm on spiral CT. For bidimensional measurements, the second diameter was perpendicular to the longest diameter. The area of lesion was calculated by multiplying the longest diameter by the greatest perpendicular diameter.
Tumor blocks were sectioned at 4 μm. Slides were de-paraffined and rehydrated in the LEICA® ST5020 Multistainer. Antigen retrieval was carried out by heating slides with Citra Plus Antigen retrieval solution (BioGenex, Cat # HK080-9K) in a BIOGENEX® EZ-Retriever Microwave at 95° C. for 15 minutes. The slides were then cooled at room temp for 5 minutes, and rinsed with distilled water for three times (˜1 minute each). Slides were immunostained in the i6000 Automated Staining System (BioGennex) using the following conditions: blocking with peroxide block (DAKO, Cat# K4007) for 5 minutes, followed by 5% goat serum for 30 mins, primary antibodies rabbit anti-fibroblast growth factor-2 (FGF-2) (Abcam Cat# #16828) 1:25 or rabbit immunoglobulin G (Rabbit IgG, LabVision, Cat# NC-100-P) 5 μg/ml were added and incubated for 1 hour, followed by Peroxidase Anti-Rabbit IgG (H+L) secondary antibody (Vector, Cat# PI-1000) at 1:200 dilution for 45 minutes. Chromogen substrate DAB (DAKO, Cat# K4007) was added and incubated for 5 minutes. Slides were counterstained with hematoxyline (DAKO cat#53309) for 1 minute. The stained slides were dehydrated and coverslipped in the LEICA® ST5020 Multistainer and assessed by a board-certified pathologist, without knowledge of patients' medical status.
To compare response rates between the FGF-2(+) and FGF-2(−) groups, a Fisher's exact test was used. To test for differences of percent changes from baseline in tumor between FGF-2(+) and FGF-2(−) groups, a non-parametric Wilcoxon rank-sum test was used (since the assumptions on the marginal distributions for the t-statistic were slightly violated for percent change from baseline, and small sample sizes could increase the test's vulnerability to assumption violations). The same method was applied to test for the difference in percent change from baseline of CIV at Day 8 and Day 26 between the two groups. In addition, a Rank-based ANCOVA was used to investigate the effect of the FGF-2 status on the post-baseline tumor volume, adjusted for the baseline tumor volume. All analyses were performed using R (Y. Shing et al., Science., 223:1296 (1984)).

collagen IV (CIV) = assay: Plasma collagen IV (CIV) ELISA in patients; format: in vivo, human; conditions: for reduction in median CIV levels: regardless of FGF-2 status
Method: Plasma collagen IV (CIV) was measured using an enzyme-linked immunosorbent assay (ELISA) kit obtained from Biotrin International, Ltd. (Dublin, Ireland). […] Per the manufacturer's kit insert and instructions, the kit standards, QCs and EDTA plasma patient samples were diluted with conjugate (anti-collagen IV mouse Fab′ conjugated to horseradish peroxidase, containing 30 mg/l Proclin 300 as a preservative). Diluted samples were incubated for 30 minutes in wells coated with a second anti-collagen IV antibody, and then washed 3 times with kit wash buffer (phosphate buffer with Tween 20 and proclin 300 as a preservative. Ready to use TMB substrate was added and incubated for 30 minutes. The reaction was stopped by the addition of 1M H2SO4. The absorbance at 450 nm using 630 nm as a reference was measured using a SPECTRAMAX® plate reader (Molecular Devices, Sunnyvale, Calif.). Softmax Pro 4.8 software was used to generate a 4-parameter logistic (4-PL) curve fit using the CIV kit standards.

sVEGFR2 = assay: Plasma sVEGFR2 change from baseline in patients; format: in vivo, human

## [(1R),2S]-2-Aminopropionic acid 2-[4-(4-fluoro-2-methyl-1H-indol-5-yloxy)-5-methylpyrrolo[2,1-f][1,2,4]triazin-6-yloxy]-1-methylethyl ester [brivanib]
[1]
  effect on tumor cell proliferation in the presence of VEGF: no affect on tumor cell proliferation
pERK and pAKT
  downstream pathway pERK and pAKT: affecting downstream pathway genes such as pERK and pAKT
FGF pathway
  FGF2-induced FGF pathway up-regulation (expression): inhibited only by brivanib; also recorded: abrograted only in the presence of only brivanib
[2]
  modulation of FGF2 growth factor gene expression levels: modulated FGF2 growth factor gene expression levels
VEGF gene expression
  modulation of VEGF gene expression levels: modulated VEGF gene expression levels
GEO colon cancer model
  ability to inhibit tumor growth: increased affect on the ability to inhibit tumor growth when compared to bevacizumab
[3]; Example 1 analysis of CA 182-002, not statistically significant
  tumor shrinkage from baseline, FGF2 staining vs negative staining tumors: tend to have more shrinkage than the negative staining tumors
[3]; Example 1 analysis of CA 182-002, p value 0.475
  survival, FGF2 positive vs negative tumors (Kaplan-Meier): tended to have a survival advantage
[3]; FGF2+ patients (n = 24)
  Mean change in tumor size (%) (~8 wks) High (≧600 mg) (n = 26): 0.9%
  Mean change in tumor size (%) (~8 wks) Low (<600 mg) (n = 17): 28%
  Median PFS (days) High (≧600 mg) (n = 26): 107 days
  Median PFS (days) Low (<600 mg) (n = 17): 71 days
  PD, number of patients: 9
  PR, number of patients: 2
[3]; FGF2− patients (n = 19)
  Mean change in tumor size (%) (~8 wks) High (≧600 mg) (n = 26): 24%
  Mean change in tumor size (%) (~8 wks) Low (<600 mg) (n = 17): 71%
  Median PFS (days) High (≧600 mg) (n = 26): 56 days
  Median PFS (days) Low (<600 mg) (n = 17): 54 days
  PD, number of patients: 14
  PR, number of patients: 0
[3]; patients with FGF-2(+) tumors
  reduction of tumor growth, FGF-2(+) compared with FGF-2(−) patients: three-fold
  patients with progressive disease: 9 out of 24
  patients with a partial response or stable disease: 62.5%
  median increase in tumor size from baseline: 1%
[3]; patients with FGF-2(−) tumors
  patients with progressive disease: 14 out of 19
  median increase in tumor size from baseline: 36%
[3]; patients with FGF-2− tumors
  patients with a partial response or stable disease: 26.3%
Collagen IV (CIV); 320 mg, after 8 days
  reduction in median CIV levels: 2.6%
Collagen IV (CIV); 320 mg, after 26 days
  reduction in median CIV levels: 2.3%
Collagen IV (CIV); 800 mg, after 8 days
  reduction in median CIV levels: 24%
Collagen IV (CIV); 800 mg, after 26 days
  reduction in median CIV levels: 31%
Collagen IV (CIV); FGF2+ patients (n = 24)
  COL IV change from baseline (%) (Day 26) (n = 42): −30%
Collagen IV (CIV); FGF2− patients (n = 19)
  COL IV change from baseline (%) (Day 26) (n = 42): −16%
Collagen IV (CIV); patients with FGF2(−) tumors, after 8 days
  median decrease of CIV levels from baseline: 4.9%
Collagen IV (CIV); patients with FGF-2(+) tumors, after 8 days
  median decrease of CIV levels from baseline: 16.1%
Collagen IV (CIV); patients with FGF-2(+) tumors, after 26 days
  median reduction from baseline in CIV levels: 30.7%
Collagen IV (CIV); patients with FGF-2(−) tumors, after 26 days
  median reduction from baseline in CIV levels: 4.3%
sVEGFR2; FGF2+ patients (n = 24)
  sVEGFR2 change from baseline (%) (Day 26) (n = 39): −23%
sVEGFR2; FGF2− patients (n = 19)
  sVEGFR2 change from baseline (%) (Day 26) (n = 39): −15%
